The assay addresses T1, ALT (Homo sapiens, UniProt P24298).
T1 construct: purchased ASAHI CHEMICAL INDUSTRIES CO., LTD; T-71
T1 sequence (P24298 1-496): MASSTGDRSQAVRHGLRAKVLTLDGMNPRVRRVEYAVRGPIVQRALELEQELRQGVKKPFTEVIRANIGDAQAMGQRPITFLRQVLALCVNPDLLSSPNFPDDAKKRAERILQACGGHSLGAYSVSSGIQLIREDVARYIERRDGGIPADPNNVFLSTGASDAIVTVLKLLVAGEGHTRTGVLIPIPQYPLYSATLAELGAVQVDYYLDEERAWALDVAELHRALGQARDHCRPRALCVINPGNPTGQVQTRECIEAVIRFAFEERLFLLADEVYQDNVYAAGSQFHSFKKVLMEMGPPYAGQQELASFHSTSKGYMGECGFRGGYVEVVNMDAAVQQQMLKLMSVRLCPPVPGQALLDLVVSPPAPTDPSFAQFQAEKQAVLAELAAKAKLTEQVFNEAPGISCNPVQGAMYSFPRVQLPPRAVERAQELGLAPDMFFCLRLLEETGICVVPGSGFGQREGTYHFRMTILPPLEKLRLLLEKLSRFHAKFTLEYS
The assay is described as follows: Stabilization effect of amino acids on ALT in control substance (residual activity after storage). As to conditions: for activity at 10000 µM: 96 h; for remaining activity at 1000 µM: tyrosine 1 mmol/L; for remaining activity at 5000 µM: valine 5 mmol/L; for remaining activity at 20000 µM: valine 20 mmol/L; for remaining activity at 50000 µM: valine 50 mmol/L; for remaining activity at 100000 µM: valine 100 mmol/L. Type of assay: biochemical. How it is done:
Using a human serum base and a BSA base as a medium, control substances were prepared respectively by adding, as a stabilizer, no amino acid, valine (10 mmol/L) as amino acid, proline (10 mmol/L) or other amino acid (10 mmol/L, provided that 1 mmol/L in case of tyrosine) to the respective mediums and then adding, as an enzyme, ALT (about 100 U/L).
The respective control substances thus obtained were stored at 45°C for four days and the residual activity of ALT contained in the respective control substances was measured.
CO., LTD. (manufacturing No. T-71). Furthermore, the human serum base used herein is a human serum base prepared by previously subjecting human serum to a heat treatment at 56°C for four hours thereby to devitalize an endogenous enzyme, followed by sterilization by filtration using a membrane filter of 0.2 µm in a pore diameter. The BSA base used herein is BES buffer (20 mmol/L) containing 3W/V% BSA.
With regard to the residual activity of ALT, the residual activity of ALT was measured by using an ALT reagent L "KOKUSAI" manufactured by INTERNATIONAL REAGENTS CORPORATION.
Valine and r-ALT were added to a human serum base and a BSA base in the concentration of about 100 U/L and, after storage at 45°C for four days, the residual activity was measured.

[1] abbreviates: BSA base, amino acid 10 mmol/L, r-ALT about 100 U/L, stored at 45°C for four days (Example 1), read-out: Residual activity (%) of ALT.
Setting [2] is: Human serum base, amino acid 10 mmol/L, r-ALT about 100 U/L, stored at 45°C for four days (Example 1), read-out: Residual activity (%) of ALT.
Setting [3] is: read-out: Residual activity (%) of ALT, BSA base, amino acid 10 mmol/L, r-ALT about 100 U/L, stored at 45°C for four days (Example 1).
[4] abbreviates: read-out: Residual activity (%) of ALT, Human serum base, amino acid 10 mmol/L, r-ALT about 100 U/L, stored at 45°C for four days (Example 1).
The mark [5] stands for this setting: BSA base, valine 0.5 mmol/L, 45°C for four days (Example 2).
[6] abbreviates: BSA base, 45°C for four days (Example 2).
The mark [7] stands for this setting: Human serum base, 45°C for four days (Example 2).

Read-outs that look alike come from different tables or passages of the source.

Regarding `C[C@H](N)C(=O)O` [Alanine], the activity at 10000 µM by setting is: under setting [1], 28%; under setting [2], 15%.
For the compound `N=C(N)NCCC[C@H](N)C(=O)O` [Arginine], the activity at 10000 µM is, setting by setting: under setting [3], 30%; under setting [4], 18%.
In the case of `NC(=O)C[C@H](N)C(=O)O` [Asparagine], the activity at 10000 µM by setting is: under setting [1], 25%; under setting [2], 14%.
`N[C@@H](CC(=O)O)C(=O)O` [Aspartic acid]: the remaining activity at 10000 µM by setting is: under setting [1], 23%; under setting [2], 13%.
With `N[C@@H](CS)C(=O)O` [Cysteine], the activity at 10000 µM by setting is: under setting [1], 24%; under setting [2], 14%.
Take `N[C@@H](CCC(=O)O)C(=O)O` [Glutamic acid]: the remaining activity at 10000 µM by setting is: under setting [3], 28%; under setting [4], 15%.
Turning to `NC(=O)CC[C@H](N)C(=O)O` [Glutamine], the activity at 10000 µM is, setting by setting: under setting [1], 15%; under setting [2], 17%.
The like results for `NCC(=O)O` [Glycine] were, in that order, 30% and 19%.
For `N[C@@H](Cc1c[nH]cn1)C(=O)O` [Histidine] the same measures were 28% and 15%.
For `CC[C@H](C)[C@H](N)C(=O)O` [Isoleucine] the same measures were 28% and 18%.
With `CC(C)C[C@H](N)C(=O)O` [Leucine], the activity at 10000 µM runs as follows: under setting [1], 28%; under setting [2], 20%.
Take `NCCCC[C@H](N)C(=O)O` [Lysine]: the activity at 10000 µM came to 31% under setting [1] and 20% under setting [2].
For the compound `CSCC[C@H](N)C(=O)O` [Methionine], the activity at 10000 µM under setting [1] amounted to 31% and the activity at 10000 µM under setting [2] amounted to 20%.
The like results for `N[C@@H](CO)C(=O)O` [Serine] were, in that order, 32% and 19%.
The like results for `C[C@@H](O)[C@H](N)C(=O)O` [Threonine] were, in that order, 31% and 18%.
For `N[C@@H](Cc1c[nH]c2ccccc12)C(=O)O` [Tryptophane] the same measures were 30% and 18%.
With `N[C@@H](Cc1ccc(O)cc1)C(=O)O` [Tyrosine], the remaining activity at 1000 µM is, setting by setting: (BSA base, r-ALT about 100 U/L, stored at 45°C for four days (Example 1)) 31%; (Human serum base, r-ALT about 100 U/L, stored at 45°C for four days (Example 1)) 18%.
For `CC(C)[C@H](N)C(=O)O` [Valine], the activity at 10000 µM under setting [1] amounted to 62%. Under setting [2], the activity at 10000 µM was 55%. Also, under setting [5], the “Residual activity (%) of ALT” value was found to be 36% and the remaining activity at 500 µM turned out to be 38%. Under setting [6], this compound returned a remaining activity at 5000 µM of 46%, a remaining activity at 20000 µM of 65%, a remaining activity at 50000 µM of 64% and a remaining activity at 100000 µM of 65%. Also, under “BSA base, valine 10 mmol/L, 45°C for four days (Example 2), read-out: Residual activity (%) of ALT”, the remaining activity at 10000 µM was 62%. Where the note is “Human serum base, valine 0.5 mmol/L, 45°C for four days (Example 2)”, this compound gave a remaining activity at 500 µM of 28%. For the same compound, under setting [7], the remaining activity at 5000 µM was 33%, the remaining activity at 20000 µM worked out at 56%, the remaining activity at 50000 µM is 56% and the remaining activity at 100000 µM is 55%. The remaining activity at 10000 µM (Human serum base, valine 10 mmol/L, 45°C for four days (Example 2), read-out: Residual activity (%) of ALT) stood at 55%.
As for `N[C@@H](Cc1ccccc1)C(=O)O` [phenylalanine], the activity at 10000 µM is 31% under setting [1] and 19% under setting [2].
For `O=C(O)[C@@H]1CCCN1` [proline] the same measures were 61% and 35%.

The values are drawn from patent publication EP1508617B1, “Method for stabilizing an alanine aminotransferase and the corresponding compositions” (SYSMEX CORPORATION, priority 1998, dated 1999).
